In general, IC50 refers to the concentration at which inhibition is half-maximal.

The values that follow come from patent publication US12018023B2 (NERVIANO MEDICAL SCIENCES S.R.L., priority 2018, dated 2024).

The test system of one experiment is HT-1080 (IDH1^R132C). The experiment can be described thus: Cellular 2-HG production assay, HT-1080. It is filed as cell-based. Conditions: Homo sapiens, HT-1080, 72 h, inhibition of 2HG production, 72 hr incubation, LC-MS/MS; read-out: HT1080 2-HG IC50. In short, it runs like this:
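Cells in E-MEM/10% FCS (G418 500 μg/mL for the transfected U87-MG line) at 500 per well got compound 24 h after seeding and were incubated 72 h at 37 °C. Medium 2-HG was measured by LC-MS/MS with 2-HG-d3 internal standard; IC50 came from sigmoidal fitting versus controls.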

In the next experiment the test system is U87MG_IDH1R132H. In words: Cellular 2-HG production assay, U87-MG-IDH1 R132H. It is filed as cell-based. Conditions: inhibition of 2HG production, 72 hr incubation, LC-MS/MS. On the procedure: Cell lines HT-1080 (commercially available) and U87-MG-IDH1^R132H (obtained in analoy to the procedure reported in J. Mol. Neurosci 2013, 50, 165-71) are maintained in E-MEM 10% FCS and incubated at 37° C. in a humidified 5% CO2 atmosphere. Stably transfected U87-MG cell lines are also supplemented with 500 μg/mL G418.
Cells are seeded into 96 well black flat bottom plates at a density of 500 cells/well in 100 μL complete medium. After 24 hr the medium is replaced with 200 uL of fresh medium and compounds (dissolved into DMSO) are administrated to the cells using D300E Digital Dispenser (Tecan).
After 72 hr of incubation 100 uL from each well are collected and used for 2HG (R(−)-2-hydroxyglutarate) quantification.
Levels of 2-HG in cell culture media are determined by LC-MS/MS. Cell supernatants (100 μL/well) are treated with 1 M aqueous trichloroacetic acid containing 130 μM of the internal standard 2-HG-d3 (20 μL/well) in a 96-well plate.
The plates are sealed, mildly vortexed for 60 minutes, centrifuged at 4,000 RPM for 15 minutes, placed in a refrigerated autosampler taking care not to shake them, and aliquots of the upper part of the samples are directly injected in the chromatographic system. Calibration standards are obtained by ten fold dilution of aqueous 2-HG stock solutions with blank cell culture medium and denatured exactly in the same way as described above for samples. Samples and standards are assayed for 2-HG by reversed phase chromatography on a C18 column eluted with aqueous 0.15% formic acid and briefly washed with 90% methanol at the end of the run. 2-HG is determined by negative ion electrospray ionization with the internal standard method on a triple quadrupole mass spectrometer monitoring the MRM transitions 147>129 (2-HG) and 150>132 (2-HG-d3). 2-HG inhibition was calculated by comparing treated versus control data using Assay Explore (Symyx) software, with IC50 determined using a sigmoidal fitting algorithm.

Another experiment addresses T1, IDH1^R132C (Homo sapiens, UniProt O75874, R132C).
T1 construct: purchased not specified
The experiment can be described thus: NADPH depletion assay, IDH1 R132C. It is filed as biochemical. In short, it runs like this: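 IDH1 R132C (2 nM) preincubated 15 min at RT with compound in Tris-HCl pH 7.6/MgCl2 buffer, then 60 min RT with NADPH and 0.14 mM alpha-ketoglutarate. Remaining NADPH read by diaphorase/resazurin fluorescence (Ex544/Em590).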

Another experiment has as its target T2, IDH2^R172K (Homo sapiens, UniProt P48735, R172K).
T2 construct: purchased not specified
T2 sequence (P48735 40-452 R172K): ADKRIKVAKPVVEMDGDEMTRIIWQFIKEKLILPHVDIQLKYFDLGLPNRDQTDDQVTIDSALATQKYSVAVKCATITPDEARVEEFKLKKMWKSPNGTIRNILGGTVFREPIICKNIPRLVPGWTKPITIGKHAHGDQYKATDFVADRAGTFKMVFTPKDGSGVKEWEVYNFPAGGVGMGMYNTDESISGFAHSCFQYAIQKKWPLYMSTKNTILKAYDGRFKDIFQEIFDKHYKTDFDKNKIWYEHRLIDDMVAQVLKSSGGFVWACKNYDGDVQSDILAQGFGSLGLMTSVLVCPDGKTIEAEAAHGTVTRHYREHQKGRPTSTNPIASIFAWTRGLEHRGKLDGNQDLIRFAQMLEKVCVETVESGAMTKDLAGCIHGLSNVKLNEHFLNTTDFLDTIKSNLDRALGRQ
The experiment can be described thus: NADPH depletion assay, IDH2 R172K. It is filed as biochemical. Put shortly:
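IDH2 R172K (16 nM) was preincubated 15 min at RT with compound (1:3 series from 1 mM in DMSO) in Tris pH 7.6/NaCl/MgCl2/Triton/β-mercaptoethanol. The reaction ran 60 min at RT with 0.55 mM alpha-ketoglutarate and NADPH (12 μM in the substrate mix). Remaining NADPH was read with diaphorase/resazurin fluorescence at Ex544/Em590.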

Experiment [1] addresses T3, IDH1^R132H homodimer enzyme (Homo sapiens, UniProt O75874, R132H).
T3 construct: purchased not specified
In words: NADPH depletion assay, IDH1 R132H. It is filed as biochemical. In short, it runs like this:
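IDH1 R132H enzyme (8 nM as diluted) in Tris-HCl pH 7.6 with 10 mM MgCl2, 0.001% Triton X-100 and 4 mM β-mercaptoethanol is preincubated 15 min at RT with compound. Substrate mix (12 uM NADPH, 3.4 mM α-ketoglutarate) is added for 60 min; remaining NAD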

T3 sequence (O75874 whole entry R132H): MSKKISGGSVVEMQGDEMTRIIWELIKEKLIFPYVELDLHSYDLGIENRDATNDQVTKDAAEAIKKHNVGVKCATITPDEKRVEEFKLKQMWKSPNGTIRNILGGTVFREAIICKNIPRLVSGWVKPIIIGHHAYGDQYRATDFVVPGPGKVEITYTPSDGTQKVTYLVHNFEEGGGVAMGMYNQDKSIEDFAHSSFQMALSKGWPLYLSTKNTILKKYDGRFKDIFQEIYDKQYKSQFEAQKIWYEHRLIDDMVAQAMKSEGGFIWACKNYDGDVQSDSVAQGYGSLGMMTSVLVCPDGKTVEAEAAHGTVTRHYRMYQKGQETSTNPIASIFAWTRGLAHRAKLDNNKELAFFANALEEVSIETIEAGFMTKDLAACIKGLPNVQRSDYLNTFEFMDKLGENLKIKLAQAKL
T1 sequence (O75874 whole entry R132C): as the sequence (O75874 whole entry R132H) above, with H132C counted along it

`C[C@H](Nc1ncc2ccc(=O)n(CC(C)(C)C(F)(F)F)c2n1)c1ccc(CN2CCC(F)(F)CC2)cc1` [cpd 116, 2-{[(1S)-1-{4-[(4,4-difluoropiperidin-1-yl)methyl]phenyl}ethyl]amino}-8-(3,3,3-trifluoro-2,2-dimethylpropyl) pyrido[2,3-d]pyrimidin-7(8H)-one]: the IC50 amounted to 311 nM with HT-1080 (IDH1^R132C); 612 nM in the experiment on U87MG_IDH1R132H; 101 nM against IDH1^R132C; 5020 nM against IDH2^R172K; 176 nM in experiment [1].

Turning to `CC[C@H](C)n1c(=O)ccc2cnc(N[C@@H](C)c3ccc(CN4CCCC(F)(F)C4)cc3)nc21` [cpd 62, 8-[(2S)-butan-2-yl]-2-{[(1S)-1-{4-[(3,3-difluoropiperidin-1-yl)methyl]phenyl}ethyl]amino}pyrido[2,3-d]pyrimidin-7(8H)-one], the IC50 with HT-1080 (IDH1^R132C) was determined as 169 nM; in the experiment on U87MG_IDH1R132H it was 462 nM; against IDH1^R132C it was 44 nM; on IDH2^R172K, 5700 nM; in experiment [1] it was 82 nM.

`C[C@H](Nc1ncc2ccc(=O)n(CC(C)(C)C)c2n1)c1ccc(-c2ccnc(F)c2)cc1` [cpd 132, 8-(2,2-dimethylpropyl)-2-({(1S)-1-[4-(2-fluoropyridin-4-yl)phenyl]ethyl}amino)pyrido[2,3-d]pyrimidin-7(8H)-one]: the IC50 stood at 3220 nM in the experiment on U87MG_IDH1R132H, 124 nM on IDH1^R132C, 6110 nM at IDH2^R172K and 194 nM in experiment [1].

For `C[C@H](Nc1ncc2ccc(=O)n(CC(C)(C)C)c2n1)c1ccc(-c2cnn(C)c2)cc1` [cpd 130, 8-(2,2-dimethylpropyl)-2-({(1S)-1-[4-(1-methyl-1H-pyrazol-4-yl)phenyl]ethyl}amino)pyrido[2,3-d]pyrimidin-7 (8H)-one], the IC50 in the experiment with U87MG_IDH1R132H was determined as 4840 nM; against IDH1^R132C, 93 nM; at IDH2^R172K, 5030 nM; in experiment [1], 180 nM.

For the compound `CC(C)[C@H](C)n1c(=O)ccc2cnc(N[C@@H](C)c3ccc(CN4CCCC(F)(F)C4)cc3)nc21` [cpd 65, 2-{[(1S)-1-{4-[(3,3-difluoropiperidin-1-yl)methyl]phenyl}ethyl]amino}-8-[(2S)-3-methylbutan-2-yl]pyrido[2,3-d]pyrimidin-7(8H)-one], the IC50 with HT-1080 (IDH1^R132C) came to 82 nM; in the experiment with U87MG_IDH1R132H, 179 nM; against IDH1^R132C, 11 nM; in experiment [1], 20 nM.

With `C[C@H](Nc1ncc2ccc(=O)n(CC(C)(C)C)c2n1)c1ccc(CN2CCOCC2)cc1` [cpd 110, 8-(2,2-dimethylpropyl)-2-({(1S)-1-[4-(morpholin-4-ylmethyl)phenyl]ethyl}amino)pyrido[2,3-d]pyrimidin-7(8H)-one], the IC50 turned out to be 590 nM in the experiment on HT-1080 (IDH1^R132C), 2610 nM in the experiment on U87MG_IDH1R132H, 104 nM at IDH1^R132C and 238 nM in experiment [1].

Consider `CC(C)[C@H](C)n1c(=O)ccc2cnc(N[C@@H](C)c3ccc(CN4CCOCC4)c(F)c3)nc21` [cpd 68, 2-({(1S)-1-[3-fluoro-4-(morpholin-4-ylmethyl)phenyl]ethyl}amino)-8-[(2S)-3-methylbutan-2-yl]pyrido[2,3-d]pyrimidin-7(8H)-one], for which the IC50 was determined as 315 nM with HT-1080 (IDH1^R132C), 646 nM with U87MG_IDH1R132H, 29 nM against IDH1^R132C and 78 nM in experiment [1].

Take `C[C@H](Nc1ncc2ccc(=O)n(CC3CCC3)c2n1)c1ccc(CN2CCC(F)(F)CC2)cc1` [cpd 109, 8-(cyclobutylmethyl)-2-{[(1S)-1-{4-[(4,4-difluoropiperidin-1-yl)methyl]phenyl}ethyl]amino}pyrido[2,3-d]pyrimidin-7(8H)-one]: the IC50 with U87MG_IDH1R132H is 1810 nM; against IDH1^R132C it was 218 nM; against IDH2^R172K, 5680 nM; in experiment [1], 334 nM.

On to `C[C@H](Nc1ncc2ccc(=O)n(CC(C)(C)CO)c2n1)c1ccc2ccccc2c1` [cpd 38, 8-(3-hydroxy-2,2-dimethylpropyl)-2-{[(1S)-1-(naphthalen-2-yl)ethyl]amino}pyrido[2,3-d]pyrimidin-7(8H)-one], for which the concentration for half-maximal inhibition (IC50) in the experiment on U87MG_IDH1R132H turned out to be 2640 nM; at IDH1^R132C, 67 nM; against IDH2^R172K, 7510 nM; in experiment [1], 137 nM.

On to `C[C@H](Nc1ncc2ccc(=O)n(CC3CCCCC3)c2n1)c1ccc(CN2CCC(F)(F)CC2)cc1` [cpd 113, 8-(cyclohexylmethyl)-2-{[(1S)-1-{4-[(4,4-difluoropiperidin-1-yl)methyl]phenyl}ethyl]amino}pyrido[2,3-d]pyrimidin-7(8H)-one], for which the IC50 came out at 2540 nM with U87MG_IDH1R132H, 282 nM against IDH1^R132C, 5510 nM against IDH2^R172K and 367 nM in experiment [1].

For the compound `C[C@H](Nc1ncc2ccc(=O)n([C@@H](C)C3CCCCC3)c2n1)c1ccc(CN2CCCC(F)(F)C2)cc1` [cpd 66, 8-[(1S)-1-cyclohexylethyl]-2-{[(1S)-1-{4-[(3,3-difluoropiperidin-1-yl)methyl]phenyl}ethyl]amino} pyrido[2,3-d]pyrimidin-7(8H)-one], the IC50 in the experiment on HT-1080 (IDH1^R132C) came out at 353 nM; in the experiment on U87MG_IDH1R132H it was 691 nM; on IDH1^R132C, 94 nM; at IDH2^R172K, 4540 nM; in experiment [1] it was 161 nM.

Turning to `CC(C)Cn1c(=O)ccc2cnc(N[C@@H](C)c3ccc(CN4CCC(F)(F)CC4)cc3)nc21` [cpd 104, 2-{[(1S)-1-{4-[(4,4-difluoropiperidin-1-yl)methyl]phenyl}ethyl]amino}-8-(2-methylpropyl)pyrido[2,3-d]pyrimidin-7(8H)-one], the IC50 stood at 1770 nM in the experiment on U87MG_IDH1R132H, 121 nM against IDH1^R132C, 5130 nM against IDH2^R172K and 276 nM in experiment [1].

On to `C[C@H](Nc1ncc2ccc(=O)n(CC(C)(C)C#N)c2n1)c1ccc2ccccc2c1` [cpd 129, 2,2-dimethyl-3-[2-{[(1S)-1-(naphthalen-2-yl)ethyl]amino}-7-oxopyrido[2,3-d]pyrimidin-8(7H)-yl]propanenitrile], for which the IC50 in the experiment on U87MG_IDH1R132H is 3840 nM; against IDH1^R132C, 98 nM; against IDH2^R172K it was 6680 nM; in experiment [1], 197 nM.

In the case of `C[C@H](Nc1ncc2ccc(=O)n(CC(C)(C)C)c2n1)c1ccc(C(=O)NC2CCC(F)(F)CC2)c(F)c1` [cpd 89, N-(4,4-difluorocyclohexyl)-4-[(1S)-1-{[8-(2,2-dimethylpropyl)-7-oxo-7,8-dihydropyrido[2,3-d]pyrimidin-2-yl]amino}ethyl]-2-fluorobenzamide], the IC50 was found to be 505 nM in the experiment on HT-1080 (IDH1^R132C), 501 nM in the experiment on U87MG_IDH1R132H, 75 nM against IDH1^R132C and 112 nM in experiment [1].

For the compound `C[C@H](Nc1ncc2ccc(=O)n(CC(C)(C)C)c2n1)c1ccc(-c2ccccc2C#N)cc1` [cpd 134, 4′-[(1S)-1-{[8-(2,2-dimethylpropyl)-7-oxo-7,8-dihydropyrido[2,3-d]pyrimidin-2-yl]amino}ethyl]biphenyl-2-carbonitrile], the IC50 in the experiment on U87MG_IDH1R132H stood at 874 nM; against IDH1^R132C, 61 nM; against IDH2^R172K, 6110 nM; in experiment [1], 152 nM.
